# Calls of active or inactive are those of the source.
# Columns and labels:
# [1] = molecular target: T1, Short transient receptor potential channel 4 (Mus musculus, UniProt Q9QUQ5); assay: mouse TRPC4 channel inhibitors, dose response, cell-based, HEK293 TRPC4/mu-opioid, Fluo-4 calcium (AID 434942); type: functional;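 note: potency of inhibitors blocking the TRPC4 calcium response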
# T1 sequence (Q9QUQ5 whole entry): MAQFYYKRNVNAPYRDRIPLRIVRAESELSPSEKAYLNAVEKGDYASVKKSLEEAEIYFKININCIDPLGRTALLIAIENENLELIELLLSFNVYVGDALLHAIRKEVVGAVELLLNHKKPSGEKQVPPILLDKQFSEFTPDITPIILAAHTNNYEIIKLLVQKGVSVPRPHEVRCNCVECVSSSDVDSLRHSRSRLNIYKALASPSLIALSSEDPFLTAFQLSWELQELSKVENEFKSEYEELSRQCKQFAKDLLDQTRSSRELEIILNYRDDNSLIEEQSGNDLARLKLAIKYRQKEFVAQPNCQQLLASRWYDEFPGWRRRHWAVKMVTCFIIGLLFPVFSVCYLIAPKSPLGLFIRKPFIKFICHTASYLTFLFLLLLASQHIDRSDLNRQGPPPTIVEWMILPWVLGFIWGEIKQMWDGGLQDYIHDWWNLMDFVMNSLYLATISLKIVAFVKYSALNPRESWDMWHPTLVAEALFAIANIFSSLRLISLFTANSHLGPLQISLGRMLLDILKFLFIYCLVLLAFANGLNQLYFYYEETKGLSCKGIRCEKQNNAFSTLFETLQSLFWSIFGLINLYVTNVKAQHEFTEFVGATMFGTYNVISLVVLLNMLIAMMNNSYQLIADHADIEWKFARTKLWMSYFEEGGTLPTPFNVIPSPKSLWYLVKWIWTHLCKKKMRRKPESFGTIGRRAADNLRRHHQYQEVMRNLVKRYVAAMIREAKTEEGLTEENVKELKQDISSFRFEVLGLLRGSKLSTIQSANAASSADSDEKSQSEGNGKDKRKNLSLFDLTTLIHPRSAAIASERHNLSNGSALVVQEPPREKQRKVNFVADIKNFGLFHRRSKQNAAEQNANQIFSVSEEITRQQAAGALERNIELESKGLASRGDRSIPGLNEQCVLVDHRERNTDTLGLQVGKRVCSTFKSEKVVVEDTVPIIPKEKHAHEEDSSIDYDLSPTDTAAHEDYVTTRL
# [2] = molecular target: T2, Calpain-2 catalytic subunit (Sus scrofa, UniProt P43367); assay: pig calpain II inhibitor potency, dose response, biochemical, fluorogenic peptide substrate (AID 1420); type: functional
# T2 sequence (P43367 whole entry): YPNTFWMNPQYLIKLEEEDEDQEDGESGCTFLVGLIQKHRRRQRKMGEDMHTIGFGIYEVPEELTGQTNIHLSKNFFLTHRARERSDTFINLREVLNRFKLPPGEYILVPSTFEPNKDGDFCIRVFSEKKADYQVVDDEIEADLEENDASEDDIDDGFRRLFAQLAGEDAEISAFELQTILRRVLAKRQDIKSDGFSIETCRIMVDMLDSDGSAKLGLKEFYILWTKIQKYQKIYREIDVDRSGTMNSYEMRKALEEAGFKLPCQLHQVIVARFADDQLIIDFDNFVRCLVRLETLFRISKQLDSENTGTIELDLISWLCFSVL
# [3] = THP-1 cell cytotoxicity, dose response, cytotoxicity control for Vif-APOBEC3G degradation inhibitor project, THP-1 cells (AID 1117359); type: functional; conditions: Human immunodeficiency virus 1, THP-1
# [4] = molecular target: T3, Rac GTPase-activating protein 1 (Homo sapiens, UniProt Q9H0H5); assay: MgcRacGAP GTPase-activating activity inhibitors, confirmation, biochemical, ADP Hunter fluorescence, primary and confirmatory (AID 624330); type: functional
# T3 sequence (Q9H0H5 whole entry): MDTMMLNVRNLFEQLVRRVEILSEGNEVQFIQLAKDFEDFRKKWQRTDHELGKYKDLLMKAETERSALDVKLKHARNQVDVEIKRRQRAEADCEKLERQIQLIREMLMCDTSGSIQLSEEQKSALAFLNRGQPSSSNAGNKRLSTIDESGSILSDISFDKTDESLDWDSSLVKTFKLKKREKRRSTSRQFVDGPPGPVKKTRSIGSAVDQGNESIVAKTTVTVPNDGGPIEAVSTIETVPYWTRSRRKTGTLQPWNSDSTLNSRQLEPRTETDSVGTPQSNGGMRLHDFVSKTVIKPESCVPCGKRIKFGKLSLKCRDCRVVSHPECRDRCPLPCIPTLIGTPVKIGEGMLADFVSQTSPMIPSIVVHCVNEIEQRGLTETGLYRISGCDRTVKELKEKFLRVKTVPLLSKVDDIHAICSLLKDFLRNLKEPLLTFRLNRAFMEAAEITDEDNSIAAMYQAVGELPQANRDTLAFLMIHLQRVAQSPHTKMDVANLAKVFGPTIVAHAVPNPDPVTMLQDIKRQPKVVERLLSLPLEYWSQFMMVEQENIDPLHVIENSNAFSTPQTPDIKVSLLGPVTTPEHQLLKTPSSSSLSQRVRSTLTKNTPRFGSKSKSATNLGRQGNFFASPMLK
# [5] = A cytotoxicity screen of small molecule inhibitors of the PhoP region in Salmonella typhi identified in the primary screen. [Related pubchem assays: 1850, 1864, 1985 ]; type: functional
# [6] = tested on: BJ; assay: cells; type: functional, cell-based; conditions: Homo sapiens
# [7] = tested on: BJ; assay: cytotoxicity toward BJ-TERT fibroblasts, dose response, cell-based, RAS-independent, luminescence (AID 1933); type: functional; conditions: Homo sapiens
# [8] = cytotoxicity toward DRD oncogenic fibroblasts, dose response, cell-based, non-viral oncogenic, luminescence (AID 1934); type: functional; conditions: Homo sapiens
# [9] = tested on: BJ; assay: cytotoxicity toward BJ-TERT-LT-ST fibroblasts, dose response, cell-based, RAS-independent, luminescence (AID 1935); type: functional; conditions: Homo sapiens;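 note: BJ fibroblasts immortalized with TERT plus LT and ST oncogenes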
# [10] = molecular target: Nucleotide-binding oligomerization domain-containing protein 2 (Homo sapiens, UniProt Q9HC29); assay: NOD2 signaling inhibitors, cell-based, luminescence, uHTS, HEK293 (AID 1566); type: functional
# [11] = tested on: HEK293; assay: cells; type: functional, cell-based; conditions: Homo sapiens
# [12] = molecular target: T4, Streptokinase A (Streptococcus pyogenes serotype M1, UniProt P10520); assay: S. pyogenes streptokinase expression inhibitors, potency, dose response, plasminogen activation absorbance, OD405 (AID 1914); type: functional, Streptococcus pyogenes M1 GAS;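 note: secreted streptokinase activity via plasminogen activation per viability signal from cell pellet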
# T4 sequence (P10520 whole entry): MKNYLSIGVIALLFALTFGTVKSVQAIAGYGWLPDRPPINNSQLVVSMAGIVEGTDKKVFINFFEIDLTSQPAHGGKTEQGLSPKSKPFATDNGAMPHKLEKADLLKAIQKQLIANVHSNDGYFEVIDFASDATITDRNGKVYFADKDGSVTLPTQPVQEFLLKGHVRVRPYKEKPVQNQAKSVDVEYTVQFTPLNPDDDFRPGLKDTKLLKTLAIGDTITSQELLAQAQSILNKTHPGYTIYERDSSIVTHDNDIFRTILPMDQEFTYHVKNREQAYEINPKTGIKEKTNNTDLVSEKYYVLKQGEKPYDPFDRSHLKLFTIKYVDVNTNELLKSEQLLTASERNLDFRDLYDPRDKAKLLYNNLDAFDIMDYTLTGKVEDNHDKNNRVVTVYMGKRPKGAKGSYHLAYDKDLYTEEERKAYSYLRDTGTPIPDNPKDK
# [13] = tested on: HEK293; assay: cells; type: functional, cell-based; conditions: Homo sapiens; remark: listed apart in the source
# [14] = tested on: Streptococcus; assay: Group A Streptococcus viability loss, dose response, counter-screen for streptokinase expression inhibitor project, luminescence, BacTiterGlo (AID 1915); type: functional, organism-based;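 note: potency for reduction of bacterial viability or growth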
# [15] = tested on: HEK293; assay: cells; type: functional, cell-based; conditions: Homo sapiens; remark: listed apart in the source
# [16] = tested on: HEK293; assay: NOD1 signaling inhibitors, primary screen, cell-based, luminescence, uHTS (AID 1578); type: functional; conditions: Homo sapiens
# [17] = tested on: HEK293; assay: NOD2 signaling inhibitors in MDP-stimulated cells, cell-based, uHTS, luminescence (AID 2001); type: functional; conditions: Homo sapiens
# [18] = tested on: Streptococcus sp. 'group A'; assay: growth inhibition of control SK(-) GAS strain, dose response, counter-screen for streptokinase expression inhibitor project, luminescence, kanamycin, BacTiterGlo, confirmation (AID 1900); type: functional, organism-based
# [19] = inhibitors of firefly luciferase expression or activity, dose response, H4 neuroglioma cells, luminescence (AID 1990); type: functional, cell-based
# [20] = inhibitors of SNCA 5'UTR-driven reporter translation, confirmation, H4 neuroglioma cells, luminescence (AID 1988); type: functional, cell-based
# [21] = cytotoxicity in HEK-293T cells, dose response, cytotoxicity control for BCR NF-kB inhibitor project, luminescence, B-cell screen hits (AID 489021); type: functional, cell-based;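 note: HEK-293T cells carrying an NF-kB luciferase reporter; cells exposed to compound for about 14 hours before viability readout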
# [22] = Luminescence Cell-Based Dose Response HTS to Identify Inhibitors of 5'UTR Stem-Loop Driven Prion Protein mRNA Translation in H4 Neuroglioblastoma Cells. [Related pubchem assays: 1827 (Project Summary), 1813 (Primary HTS)]; type: functional
# [23] = inhibitors of intracellular T. cruzi replication, confirmation, NIH3T3 host cells, beta-gal luminescence (AID 2044); type: functional, cell-based;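 note: intracellular parasites grown in NIH/3T3 mouse fibroblasts as host cells; luminescent beta-galactosidase reporter signal from transgenic T. cruzi replicating inside host cells; inhibitors lower the luminescence signal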
# [24] = cytotoxicity toward NIH3T3 fibroblasts, dose response, counter-screen, cell-based, ATP luminescence, mouse fibroblasts (AID 2010); type: functional;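 note: cells exposed to compound for about 90 hours before reading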
# [25] = microbe, parasite or virus in culture; type: functional; conditions: Mycobacterium tuberculosis
# [26] = cytotoxicity in HEK-293T cells, dose response, cytotoxicity control for TCR NF-kB inhibitor project, luminescence, T-cell screen hits (AID 489026); type: functional, cell-based;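 note: cells exposed to compound about 14 hours before the viability readout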
# [27] = molecular target: Peroxisome proliferator-activated receptor gamma/Nuclear receptor coactivator 2 (Homo sapiens, UniProt P37231); type: functional;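 note: agonist potency for raising coactivator recruitment to the receptor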
# [28] = molecular target: Peroxisome proliferator-activated receptor gamma/Nuclear receptor coactivator 1 (Homo sapiens, UniProt P37231); type: functional;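 note: agonist potency as compounds enhance coactivator SRC-1 recruitment to PPARgamma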
# [29] = molecular target: Peroxisome proliferator-activated receptor gamma/Nuclear receptor coactivator 3 (Homo sapiens, UniProt P37231); type: functional;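 note: agonist potency for raising coactivator recruitment to the receptor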
# [30] = molecular target: Cytochrome P450 3A4 (Homo sapiens, UniProt P08684);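 note: CYP3A4 tested as one member of a cytochrome P450 panel screen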
# [31] = molecular target: Cytochrome P450 2C19 (Homo sapiens, UniProt P33261); assay: Cytochrome panel assay with activity outcomes. Panel member name: p450-cyp2c19 Compounds with AC50 equal or less than 10 uM are considered active; type: functional; conditions: read-out: AC50
# Cytochrome P450 2C19, sequence (P33261 whole entry): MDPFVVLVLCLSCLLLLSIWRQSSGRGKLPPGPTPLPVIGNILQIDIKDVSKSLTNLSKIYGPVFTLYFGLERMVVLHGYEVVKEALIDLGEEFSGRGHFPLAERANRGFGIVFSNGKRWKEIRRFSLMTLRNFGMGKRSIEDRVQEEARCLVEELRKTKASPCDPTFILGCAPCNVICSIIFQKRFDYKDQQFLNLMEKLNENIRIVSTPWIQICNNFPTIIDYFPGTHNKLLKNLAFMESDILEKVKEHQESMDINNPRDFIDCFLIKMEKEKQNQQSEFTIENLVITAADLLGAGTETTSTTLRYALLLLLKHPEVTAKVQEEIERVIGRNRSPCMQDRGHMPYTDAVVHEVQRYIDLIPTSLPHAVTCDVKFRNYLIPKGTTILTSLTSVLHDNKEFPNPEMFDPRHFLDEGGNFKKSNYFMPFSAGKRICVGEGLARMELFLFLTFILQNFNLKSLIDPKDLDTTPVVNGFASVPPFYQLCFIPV
# Nucleotide-binding oligomerization domain-containing protein 2, sequence (Q9HC29 whole entry, the tested form may be a part): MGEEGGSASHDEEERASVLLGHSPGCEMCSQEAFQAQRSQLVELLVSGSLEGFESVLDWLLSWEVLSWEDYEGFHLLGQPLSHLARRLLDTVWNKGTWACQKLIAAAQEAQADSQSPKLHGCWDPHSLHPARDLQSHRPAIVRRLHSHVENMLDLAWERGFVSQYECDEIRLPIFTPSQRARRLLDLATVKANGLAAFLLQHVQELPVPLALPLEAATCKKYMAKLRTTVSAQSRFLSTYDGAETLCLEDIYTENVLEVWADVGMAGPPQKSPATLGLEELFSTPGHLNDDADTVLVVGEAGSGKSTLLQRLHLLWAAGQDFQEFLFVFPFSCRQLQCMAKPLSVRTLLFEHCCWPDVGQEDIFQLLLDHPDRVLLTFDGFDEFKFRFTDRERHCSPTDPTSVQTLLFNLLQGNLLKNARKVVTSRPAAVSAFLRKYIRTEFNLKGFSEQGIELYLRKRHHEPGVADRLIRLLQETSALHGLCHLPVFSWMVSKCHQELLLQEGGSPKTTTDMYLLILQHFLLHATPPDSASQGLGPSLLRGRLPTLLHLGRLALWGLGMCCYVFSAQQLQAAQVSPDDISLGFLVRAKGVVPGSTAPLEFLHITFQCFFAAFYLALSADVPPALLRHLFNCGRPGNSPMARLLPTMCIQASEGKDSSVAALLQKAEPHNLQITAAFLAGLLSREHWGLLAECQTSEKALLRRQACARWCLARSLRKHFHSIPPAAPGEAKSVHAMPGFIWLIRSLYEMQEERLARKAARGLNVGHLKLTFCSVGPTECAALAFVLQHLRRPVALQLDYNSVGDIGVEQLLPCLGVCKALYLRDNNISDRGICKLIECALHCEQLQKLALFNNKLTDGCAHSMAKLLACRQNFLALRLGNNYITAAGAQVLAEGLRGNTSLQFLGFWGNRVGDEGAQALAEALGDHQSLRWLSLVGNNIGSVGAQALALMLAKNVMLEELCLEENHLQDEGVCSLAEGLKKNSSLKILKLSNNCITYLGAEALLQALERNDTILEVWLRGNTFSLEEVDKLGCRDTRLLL
# Peroxisome proliferator-activated receptor gamma/Nuclear receptor coactivator 2, sequence (P37231 whole entry): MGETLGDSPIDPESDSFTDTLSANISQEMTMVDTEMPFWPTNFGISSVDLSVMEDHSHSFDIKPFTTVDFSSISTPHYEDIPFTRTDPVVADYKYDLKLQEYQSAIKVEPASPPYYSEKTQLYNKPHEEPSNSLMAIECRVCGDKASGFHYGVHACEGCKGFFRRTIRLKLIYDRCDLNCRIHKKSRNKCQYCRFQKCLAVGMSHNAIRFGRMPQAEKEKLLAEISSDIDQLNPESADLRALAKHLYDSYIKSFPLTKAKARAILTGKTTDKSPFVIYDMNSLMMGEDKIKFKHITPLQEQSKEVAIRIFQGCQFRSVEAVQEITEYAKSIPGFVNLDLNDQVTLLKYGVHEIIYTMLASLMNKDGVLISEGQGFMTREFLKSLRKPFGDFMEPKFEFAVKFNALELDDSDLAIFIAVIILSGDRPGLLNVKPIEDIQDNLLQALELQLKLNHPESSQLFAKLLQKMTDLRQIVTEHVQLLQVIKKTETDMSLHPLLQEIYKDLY
# Peroxisome proliferator-activated receptor gamma/Nuclear receptor coactivator 2, sequence (Q15596 whole entry, further chain): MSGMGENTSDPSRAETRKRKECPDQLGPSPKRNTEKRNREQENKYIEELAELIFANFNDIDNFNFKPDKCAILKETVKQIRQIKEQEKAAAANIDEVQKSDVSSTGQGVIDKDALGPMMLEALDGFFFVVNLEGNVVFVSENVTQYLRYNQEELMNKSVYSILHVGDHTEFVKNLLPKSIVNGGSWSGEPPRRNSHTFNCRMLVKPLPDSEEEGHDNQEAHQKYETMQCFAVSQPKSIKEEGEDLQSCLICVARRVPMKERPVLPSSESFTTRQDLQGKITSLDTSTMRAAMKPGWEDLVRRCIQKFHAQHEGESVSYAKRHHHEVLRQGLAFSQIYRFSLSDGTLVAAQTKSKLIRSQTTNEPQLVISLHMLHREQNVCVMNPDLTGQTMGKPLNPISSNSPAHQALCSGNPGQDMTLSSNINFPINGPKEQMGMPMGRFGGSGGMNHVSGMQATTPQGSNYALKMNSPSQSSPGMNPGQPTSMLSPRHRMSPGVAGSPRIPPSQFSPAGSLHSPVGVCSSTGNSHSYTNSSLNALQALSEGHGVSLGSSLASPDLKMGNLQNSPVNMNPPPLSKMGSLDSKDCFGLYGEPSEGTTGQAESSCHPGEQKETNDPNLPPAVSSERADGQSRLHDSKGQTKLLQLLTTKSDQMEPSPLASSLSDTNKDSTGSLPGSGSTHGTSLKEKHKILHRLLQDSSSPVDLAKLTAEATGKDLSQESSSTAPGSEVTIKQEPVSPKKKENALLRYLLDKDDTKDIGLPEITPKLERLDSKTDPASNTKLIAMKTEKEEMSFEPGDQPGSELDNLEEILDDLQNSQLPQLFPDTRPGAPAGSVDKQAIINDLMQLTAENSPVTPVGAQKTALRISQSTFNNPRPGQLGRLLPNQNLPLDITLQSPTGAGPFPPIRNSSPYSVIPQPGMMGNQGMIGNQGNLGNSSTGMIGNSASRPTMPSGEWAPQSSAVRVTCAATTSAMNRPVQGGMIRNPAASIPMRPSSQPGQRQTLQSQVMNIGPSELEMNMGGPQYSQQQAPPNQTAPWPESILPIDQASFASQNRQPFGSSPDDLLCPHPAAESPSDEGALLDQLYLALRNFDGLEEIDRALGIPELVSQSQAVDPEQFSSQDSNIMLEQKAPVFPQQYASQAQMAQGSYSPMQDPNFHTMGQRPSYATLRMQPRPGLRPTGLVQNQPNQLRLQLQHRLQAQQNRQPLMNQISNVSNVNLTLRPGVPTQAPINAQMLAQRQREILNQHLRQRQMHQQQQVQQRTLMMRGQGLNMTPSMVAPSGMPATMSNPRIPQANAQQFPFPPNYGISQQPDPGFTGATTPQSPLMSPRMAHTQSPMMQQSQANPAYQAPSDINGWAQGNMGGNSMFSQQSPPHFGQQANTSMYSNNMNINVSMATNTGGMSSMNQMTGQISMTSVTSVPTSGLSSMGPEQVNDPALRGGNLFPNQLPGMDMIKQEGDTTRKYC
# Cytochrome P450 3A4, sequence (P08684 whole entry): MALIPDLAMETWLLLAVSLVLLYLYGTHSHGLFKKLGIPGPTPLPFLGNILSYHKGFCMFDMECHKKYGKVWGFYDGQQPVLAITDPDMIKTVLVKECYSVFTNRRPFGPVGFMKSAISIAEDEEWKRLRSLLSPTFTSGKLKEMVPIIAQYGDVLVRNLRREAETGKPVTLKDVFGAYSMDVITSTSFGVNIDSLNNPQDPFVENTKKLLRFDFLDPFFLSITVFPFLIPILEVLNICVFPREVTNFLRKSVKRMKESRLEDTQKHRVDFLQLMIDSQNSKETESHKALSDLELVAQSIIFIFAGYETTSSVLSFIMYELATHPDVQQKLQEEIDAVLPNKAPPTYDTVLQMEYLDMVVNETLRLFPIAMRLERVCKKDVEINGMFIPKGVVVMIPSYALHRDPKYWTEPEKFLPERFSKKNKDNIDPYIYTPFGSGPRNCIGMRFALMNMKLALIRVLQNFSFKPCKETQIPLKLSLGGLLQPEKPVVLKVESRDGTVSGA
smiles,measurement,setting,value
O=C(COc1ccc(F)cc1)c1c(O)cc(O)cc1O,EC50,[1],3.35 µM (active)
CCOCCCNc1ccc(N2C(=O)C3CCCCC3C2=O)cc1[N+](=O)[O-] (stereo not given),IC50,[2],9.18 µM (active)
S=C(Nc1ccccc1)Nc1cc(Cl)ccc1Oc1ccccc1,EC50,[1],4.73 µM (active)
CCCc1nc(SCC(=O)c2ccccc2)c2c(=O)n(C)c(=O)n(C)c2n1,IC50,[2],7.89 µM (active)
COc1ccc2cc(C(=O)Nc3ccc(O)cc3)sc(=O)c2c1OC,CC50,[3],25 µM (active)
same,IC50,[4],24.8 µM (active)
CCC(=O)N(Cc1cc2cc(OC)ccc2nc1O)c1ccc(C)cc1C,EC50,[5],> 50 µM (active)
CC(CCc1ccccc1)NC(=O)COC(=O)c1ccc(NC(=O)CC#N)cc1 (stereo not given),EC50,[6],> 150 µM (not active)
same,EC50,[7],> 150 µM (not active)
same,EC50,[8],> 150 µM (not active)
same,EC50,[9],> 150 µM (inconclusive)
Cc1cc(C)c(NC(=O)COC(=O)Cc2ccsc2)c(C)c1,IC50,[2],> 50 µM (not active)
CN(C)C=O.N#Cc1ccc(Cl)cc1NC(=O)CSc1nc(O)c2c(C(F)(F)F)cc(-c3cccs3)nc2n1,EC50,[10],8.42 µM (active)
same,IC50,[11],> 20 µM (inactive)
same,EC50,[12],> 150 µM (not active)
same,IC50,[13],> 20 µM (inactive)
same,EC50,[14],> 150 µM (not active)
same,IC50,[15],9.55 µM (active)
same,EC50,[16],5.63 µM (active)
same,IC50,[17],6.22 µM (inactive)
same,EC50,[18],7.34 µM (active)
Cc1ccc(/C=C2\SC(=S)N(CCCC(=O)Nc3cc(C)on3)C2=O)cc1,EC50,[19],15.3 µM (active)
same,EC50,[20],14.6 µM (active)
same,IC50,[21],> 80 µM (inactive)
same,EC50,[22],51.7 µM (active)
C=CCSc1nnc2n(-c3ccccc3OC)c(=O)c3c4c(sc3n12)CCC4,EC50,[1],4.73 µM (active)
COC(=O)c1sccc1N=C(S)NCc1ccc(Cl)cc1,EC50,[5],> 50 µM (active)
N=c1sc2c(n1Cc1ccccc1)CCCC2,EC50,[5],> 50 µM (active)
Cc1nc2nc(COc3ccccc3)nn2c(C)c1Cl,EC50,[5],> 50 µM (active)
Cc1c(CN2CCC(CO)(Cc3cccc(C(F)(F)F)c3)CC2)c2ccccc2n1C,EC50,[23],0.969 µM (active)
same,CC50,[3],9.2 µM (active)
same,EC50,[24],> 60 µM (not active)
same,CC50,[25],18.1 µM (active)
CC(=O)Nc1ccc(S(=O)(=O)N2c3ccc(F)cc3CCC2C)cc1 (stereo not given),EC50,[6],92.3 µM (active)
same,EC50,[7],13.5 µM (active)
same,EC50,[8],16 µM (active)
same,IC50,[26],> 80 µM (inactive)
same,EC50,[9],16 µM (active)
CCCCC(CC)c1nnc(NC(=O)c2cccs2)s1 (stereo not given),EC50,[1],5.31 µM (active)
same,EC50,[27],> 79.4 µM (not active)
same,IC50,[2],8.06 µM (not active)
same,EC50,[28],> 79.4 µM (not active)
same,EC50,[29],> 79.4 µM (not active)
CNC(=O)CSc1nc2nn(-c3ccccc3)c(=O)c-2c2n1CCCCC2,IC50,[21],> 80 µM (inactive)
Cn1/c(=N\C(=O)CCl)sc2ccccc21,EC50,[23],0.973 µM (active)
same,EC50,[24],< 6 µM (inconclusive)
same,AC50,[30],15.8 µM (inconclusive)
same,AC50,[31],20 µM (inconclusive)
same,IC50,[21],> 80 µM (inactive)
N=c1ccn2c(n1)O[C@H]1[C@H](O)[C@@H](CO)O[C@H]12,IC50,[21],> 80 µM (inactive)
